Assay results taken from paper PMC10740580, “Benzothiazole-Phthalimide Hybrids as Anti-Breast Cancer and Antimicrobial Agents” (Antibiotics, 2023).

System: MDA-MB-231 cells
Assay: TUNEL assay (DNA damage)
Format: cell-based, human
Settings: 50 μM, 24 h
Protocol: To further assess the effect of 3h treatment in MDA-MB-231, the terminal deoxynucleotidyl transferase dUTP nick-end labeling (TUNEL) assay was used. Thus, 3h or Thalidomide, as reference drug, were administered to the cells, for 24 h, at 25 and 50 μM concentrations, respectively, or with only the vehicle (DMSO), as negative control and then processed as outlined in the experimental section. […] Nuclei were counterstained with blue DAPI (Figure 2, panels A), and merge channels were also shown (Figure 2, panels C), where it is evident the perfect superposition of green and blue signals. […] Images taken from bright fields were also included (Figure 2, panels D).
DNA damage and cell death were analyzed by means of the TUNEL assay as indicated by the manufacturer’s protocols (CF™488A TUNEL Assay Apoptosis Detection Kit, Biotium, Hayward, CA, USA), with few changes, as in [42]. DAPI staining (0.2 μg/mL, Sigma Aldrich, Milan, Italy) was adopted for cell nuclei. Observations were made at 20× magnification using a fluorescence microscope (Leica DM 6000, Leica Microsystem Srl, Buccinasco, Italy). LAS-X software (Version: 3.5.7.23225; Leica Microsystem Srl, Buccinasco, Italy) was employed for the acquisition and processing of the images. Images are representative of two separate experiments from which different fields were acquired.
Figure 2 TUNEL assay. […]

SMILES: O=C1c2ccccc2C(=O)N1c1nc2ccc(Oc3ccccc3)cc2s1 [3h, 2-[6-Phenoxy-1,3-benzothiazol-2-yl]-1H-isoindole-1,3(2H)-dione]
- DNA damage (TUNEL, green nuclear fluorescence): promoted DNA damage
